These results are taken from patent publication US20230313146A1, “INTESTINAL EPITHELIAL CELL CULTURES” (ARDELYX, INC., priority 2017, published 2023).

Holding throughout (format): cell-based
For experiment [1], the system named is human distal colonic cultures. Briefly: Seeding media comparison in human distal colonic monolayer cultures (TEER, RNA profile). The settings on record: thiazovivin substituted for Y-27632 in the seeding media (WENRAT). The method, then:
Organoids were typically grown for 7-12 days before being used to plate monolayer cultures. Organoid cultures embedded in Matrigel were broken apart in growth media and pooled in a 15 mL conical tube. The cells were centrifuged at 600×g for 3 minutes and resuspended in TrypLE Express and placed in a water bath at 37° C. for 3 minutes. The cells were then removed and pipetted up and down for 7 minutes. BM was added to quench the reaction, and the cell suspension was centrifuged at 600×g for 3 minutes, resuspended in BM, and counted.
Media conditions used for murine colon growth and differentiation were optimized for human distal colon cultures using the water-absorption phenotype characteristic of this segment. The effects of seeding and differentiation media alterations on human distal colon cultures were determined by comparing two seeding medias (WENRAT or WENRNicAST) and three differentiation medias (WENR, ENRA, and ENR). […] Murine colonic growth media (WENR) was altered by removing Wnt3a (W) to generated ENR media, or by removing Wnt3a (W) and adding A83-01 (A) (ENRA). Removal of Wnt3a and addition of A83-01 was necessary for proper differentiation of water-absorbing cultures (FIG. 9B and FIG. 8). […] However, the inclusion of Nic and SB202190 in the WENRNicAST seeding media further suppressed differentiation of secretory cells in human colonic cultures (FIG. 10). […]

Experiment [2] relates to K^+ absorption in mouse distal colonic cultures. Briefly: Mouse distal colon K+ transport screening assay. How it is done: Ion transport was determined by sampling the apical and basolateral chambers of the Transwell and analyzing these samples on an ion chromatography system (Thermo Fisher ICS-3000 or ICS-5000+) coupled with conductivity detectors. Chromatographic separation of cations was performed using an IonPac CS12A (Dionex) 2×250 mm analytical column with an isocratic elution using 25 mM methanesulfonic acid. Chromatographic separation of anions was performed using an IonPac AS18 (Dionex) 2×250 mm analytical column with an isocratic elution using 35 mM potassium hydroxide. Concentrations were calculated relative to a standard curve for each analyte ion based on retention time and peak area.
An assay was established to measure K^+ transport in mouse distal colonic cultures. Mouse distal colonic monolayer cultures were prepared in 96-well Transwells according to protocol and were used for assay on day 6, 7, or 8 depending on the TEER value of the culture and its water-absorption phenotype. Wells with a TEER value below 450 Ω·cm^2 were not used for assay. […]
To start the assay, 80 μL of apical media was added to triplicate wells per compound and 130 μL of basolateral media was added to the basolateral compartment. […] K^+ and rubidium ion concentrations were determined using ion chromatography. […]

For experiment [3], the system named is mouse duodenal, jejunal, and ileal cultures. Briefly: Differentiation of mouse small intestinal monolayer cultures (global gene expression PCC versus tissue, TEER).
Procedure: Approximately 1 μg of the entire isolated RNA was used to prepare each RNA sequencing library. RNA libraries were prepared using the TruSeq Stranded mRNA library preparation kit (Illumina). Most sequencing data were obtained using a NextSeq500 sequencer (Illumina) (2×75 bp, ˜ 30-40 million reads per sample) and some sequencing was performed using a HiSeq sequencer (Illumina) (2×125 bp, ˜ 25-30 million reads per sample). Transcript counts were obtained using the RNA Express application (RNA-Seq reads aligned with the STAR aligner) on the Illumina BaseSpace website.
Pearson correlation coefficients were determined in Microsoft Excel using the Pearson function comparing the transcript count correlation for all genes between two data sets.
On day 2, fresh W2.5ENRY was added to the cultures, and was replaced on day 4. Confluence of the culture was assessed by measuring the TEER. […]
Therefore, global gene expression by RNA sequencing was obtained for 36 culture conditions, taken 4, 6, and 8 days after seeding the cultures, and compared with the gene expression profiles of mouse jejunal villi and crypts. To simplify analysis and to account for changes in global gene expression rather than relying on a handful of marker genes, the Pearson correlation coefficient (PCC) was calculated for the relationship between the gene expression profiles of cultured cells and of mouse jejunal villus cells. […]

For the molecule `O=C(NCc1ccccc1)c1csc(Nc2ccncn2)n1` [thiazovivin], in experiment [1], the “TEER of human colonic cultures” value is given as “higher TEER values” and the secretory cell differentiation result is given as “some suppression of secretory cell differentiation”.

`[O]=[V]([O-])([O-])[O-]` [vanadate]: in experiment [2] (200 μM vanadate, mouse distal colonic cultures), the “block of K^+ absorption” value is listed as “block K^+ absorption completely”. Besides, the “Inhibition of K^+ absorption normalized to the mean value of vanadate controls (mean±SD)” value in experiment [2] (vanadate controls, 200 μM, value of 1 = inhibition equivalent to vanadate) was found to be 1.00±0.15.

B1: BMP 4: mouse BMP-4 (Peprotech), bone morphogenetic protein used as differentiation promoting factor (protein, UniProt P21275 293-408, looked up)
Bone morphogenetic protein 4: SPKHHPQRSRKKNKNCRRHSLYVDFSDVGWNDWIVAPPGYQAFYCHGDCPFPLADHLNSTNHAIVQTLVNSVNSSIPKACCVPTELSAISMLYLDEYDKVVLKNYQEMVVEGCGCR
Consider B1, for which the “correlation of gene expression of cultures with tissues in the jejunum and ileum (PCC)” value in experiment [3] (300 ng/mL, dose titration of individual BMPs) is listed as “strong correlations of gene expression”. For the same molecule, the “effectiveness at differentiating mouse duodenal, jejunal, and ileal cultures” value in experiment [3] (compared with the BMP mixture (BMP 2, 4, and 7)) is given as “as effective as the BMP mixture”.
